Source: patent US11426397B2, “Piperidinyl- and piperazinyl-substituted heteroaromatic carboxamides as modulators of GPR6” (TAKEDA PHARMACEUTICAL COMPANY LIMITED, priority 2017, dated 2022)

The compounds below were run against T1, GPR6 receptor expressed in CHO-K1 cells (Homo sapiens, UniProt P46095) (assay: In vitro inhibition of cAMP (EC50), cell-based HTRF cAMP assay). Settings: inhibition of constitutive cAMP activity of GPR6 in CHO-K1 cells.
T1 construct: expressed in transfected cells
Procedure, shortened: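 Tetracycline-inducible CHO-K1 line, GPR6 expression induced 20 h with 2 μg/mL doxycycline. Compounds incubated 45 min at 37 °C in Ringer's buffer (pH 7.4) with 0.5% fatty acid free BSA and 300 μM IBMX. Constitutive cAMP read by Lance HTRF; EC50 from four-parameter logistic fit.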

T1 sequence (P46095 whole entry): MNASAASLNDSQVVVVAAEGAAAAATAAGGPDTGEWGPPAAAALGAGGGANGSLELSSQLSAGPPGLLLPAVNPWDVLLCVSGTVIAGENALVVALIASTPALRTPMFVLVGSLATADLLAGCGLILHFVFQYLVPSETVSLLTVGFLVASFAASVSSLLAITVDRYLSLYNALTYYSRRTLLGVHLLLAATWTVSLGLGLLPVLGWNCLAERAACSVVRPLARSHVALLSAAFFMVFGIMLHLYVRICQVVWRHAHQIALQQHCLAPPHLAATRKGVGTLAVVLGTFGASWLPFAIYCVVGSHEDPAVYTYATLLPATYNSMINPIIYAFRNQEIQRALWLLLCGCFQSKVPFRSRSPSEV

| pEC50, in vitro inhibition of cAMP | SMILES |
| --- | --- |
| 5.9 | Cn1c(-c2ccccc2)ncc(C(=O)Nc2cc(C#N)ccc2N2CCC(Oc3ccc(F)cc3F)CC2)c1=O [Example 183, N-(5-cyano-2-(4-(2,4-difluorophenoxy)piperidin-1-yl)phenyl)-1-methyl-6-oxo-2-phenyl-1,6-dihydropyrimidine-5-carboxamide] |
| 6.8 | Cc1cc(C(=O)Nc2cc(C#N)ccc2N2CCC(Oc3ccc(F)cc3F)CC2)c(=O)n(C)c1C [Example 184, N-(5-cyano-2-(4-(2,4-difluorophenoxy)piperidin-1-yl)phenyl)-1,5,6-trimethyl-2-oxo-1,2-dihydropyridine-3-carboxamide] |
| 6.4 | CC(C)c1ccc(C(=O)Nc2cc(C#N)ccc2N2CCC(Oc3ccc(F)cc3F)CC2)c(=O)n1C [Example 186] |
| 6.6 | Cc1cccc2ncc(C(=O)Nc3cc(C#N)ccc3N3CCC(Oc4ccc(F)cc4F)CC3)c(=O)n12 [Example 187, N-(5-cyano-2-(4-(2,4-difluorophenoxy)piperidin-1-yl)phenyl)-6-methyl-4-oxo-4H-pyrido[1,2-a]pyrimidine-3-carboxamide] |
| 6.4 | COc1cc(N(C)C)ccc1C(=O)Nc1cc(C#N)ccc1N1CCC(Oc2ccc(F)cc2F)CC1 [Example 188, N-(5-cyano-2-(4-(2,4-difluorophenoxy)piperidin-1-yl)phenyl)-4-(dimethylamino)-2-methoxybenzamide] |
| 6.8 | COc1nc(Cl)ccc1C(=O)Nc1cc(C#N)ccc1N1CCC(Oc2ccc(F)cc2F)CC1 [Example 191, 6-chloro-N-(5-cyano-2-(4-(2,4-difluorophenoxy)piperidin-1-yl)phenyl)-2-methoxynicotinamide] |
| 5.9 | COc1c(C)cc(Cl)cc1C(=O)Nc1cc(C#N)ccc1N1CCC(Oc2ccc(F)cc2F)CC1 [Example 195] |
| 6.7 | Cc1cccn2c(=O)c(C(=O)Nc3cc(C#N)ccc3N3CCC(Oc4ccc(F)cc4F)CC3)cnc12 [Example 197, N-(5-cyano-2-(4-(2,4-difluorophenoxy)piperidin-1-yl)phenyl)-9-methyl-4-oxo-4H-pyrido[1,2-a]pyrimidine-3-carboxamide] |
| 6.4 | Cc1sc2ncc(C(=O)Nc3cc(C#N)ccc3N3CCC(Oc4ccc(F)cc4F)CC3)c(=O)n2c1C [Example 198, N-(5-cyano-2-(4-(2,4-difluorophenoxy)piperidin-1-yl)phenyl)-2,3-dimethyl-5-oxo-5H-thiazolo[3,2-a]pyrimidine-6-carboxamide] |
| 6.9 | N#Cc1ccc(N2CCC(Oc3ccc(F)cc3F)CC2)c(NC(=O)c2cnc3sccn3c2=O)c1 [Example 200, N-(5-cyano-2-(4-(2,4-difluorophenoxy)piperidin-1-yl)phenyl)-5-oxo-5H-thiazolo[3,2-a]pyrimidine-6-carboxamide] |
| 6.8 | Cc1ccc2ncc(C(=O)Nc3cc(C#N)ccc3N3CCC(Oc4ccc(F)cc4F)CC3)c(=O)n2c1 [Example 201] |
| 6.3 | CCn1c(C)cc(C)c(C(=O)Nc2cc(C#N)ccc2N2CCC(Oc3ccc(F)cc3F)CC2)c1=O [Example 202] |
| 4.9 | CN(C)C(=O)Cn1cccc(C(=O)Nc2cc(C#N)ccc2N2CCC(Oc3ccc(F)cc3F)CC2)c1=O [Example 204, N-(5-cyano-2-(4-(2,4-difluorophenoxy)piperidin-1-yl)phenyl)-1-(2-(dimethylamino)-2-oxoethyl)-2-oxo-1,2-dihydropyridine-3-carboxamide] |
| 6.0 | COc1ccc(OC)c(C(=O)Nc2cc(C#N)ccc2N2CCC(Oc3ccc(F)cc3F)CC2)c1 [Example 205, N-(5-cyano-2-(4-(2,4-difluorophenoxy)piperidin-1-yl)phenyl)-2,5-dimethoxybenzamide] |
| 6.8 | COc1c(F)cc(F)cc1C(=O)Nc1cc(C#N)ccc1N1CCC(Oc2ccc(F)cc2F)CC1 [Example 207, N-(5-cyano-2-(4-(2,4-difluorophenoxy)piperidin-1-yl)phenyl)-3,5-difluoro-2-methoxybenzamide] |
| 6.1 | COc1ccc(C(C)(C)C)cc1C(=O)Nc1cc(C#N)ccc1N1CCC(Oc2ccc(F)cc2F)CC1 [Example 209, 5-(tert-butyl)-N-(5-cyano-2-(4-(2,4-difluorophenoxy)piperidin-1-yl)phenyl)-2-methoxybenzamide] |

The next lines start with the compound.

| SMILES | pEC50, in vitro inhibition of cAMP |
| --- | --- |
| Cn1c2c(cc(C(=O)Nc3cc(C#N)ccc3N3CCC(Oc4ccc(F)cc4F)CC3)c1=O)CCCC2 [Example 185] | 6.4 |
| COc1c(F)ccc(F)c1C(=O)Nc1cc(C#N)ccc1N1CCC(Oc2ccc(F)cc2F)CC1 [Example 189, N-(5-cyano-2-(4-(2,4-difluorophenoxy)piperidin-1-yl)phenyl)-3,6-difluoro-2-methoxybenzamide] | 5.8 |
| COc1cc(Cl)c(Cl)cc1C(=O)Nc1cc(C#N)ccc1N1CCC(Oc2ccc(F)cc2F)CC1 [Example 190, 4,5-dichloro-N-(5-cyano-2-(4-(2,4-difluorophenoxy)piperidin-1-yl)phenyl)-2-methoxybenzamide] | 6.5 |
| COc1ccc(F)c(F)c1C(=O)Nc1cc(C#N)ccc1N1CCC(Oc2ccc(F)cc2F)CC1 [Example 192, N-(5-cyano-2-(4-(2,4-difluorophenoxy)piperidin-1-yl)phenyl)-2,3-difluoro-6-methoxybenzamide] | 6.3 |
| COc1ncc(Cl)cc1C(=O)Nc1cc(C#N)ccc1N1CCC(Oc2ccc(F)cc2F)CC1 [Example 193, 5-chloro-N-(5-cyano-2-(4-(2,4-difluorophenoxy)piperidin-1-yl)phenyl)-2-methoxynicotinamide] | 5.9 |
| COc1cc(C(F)(F)F)ccc1C(=O)Nc1cc(C#N)ccc1N1CCC(Oc2ccc(F)cc2F)CC1 [Example 194, N-(5-cyano-2-(4-(2,4-difluorophenoxy)piperidin-1-yl)phenyl)-2-methoxy-4-(trifluoromethyl)benzamide] | 6.3 |
| COc1nc2c(cc1C(=O)Nc1cc(C#N)ccc1N1CCC(Oc3ccc(F)cc3F)CC1)CCC2 [Example 196, N-(5-cyano-2-(4-(2,4-difluorophenoxy)piperidin-1-yl)phenyl)-2-methoxy-6,7-dihydro-5H-cyclopenta[b]pyridine-3-carboxamide] | 6.7 |
| COCCCn1cccc(C(=O)Nc2cc(C#N)ccc2N2CCC(Oc3ccc(F)cc3F)CC2)c1=O [Example 199] | 5.9 |
| N#Cc1ccc(N2CCC(Oc3ccc(F)cc3F)CC2)c(NC(=O)c2cccn(Cc3ccccn3)c2=O)c1 [Example 203, N-(5-cyano-2-(4-(2,4-difluorophenoxy)piperidin-1-yl)phenyl)-2-oxo-1-(pyridin-2-ylmethyl)-1,2-dihydropyridine-3-carboxamide] | 5.6 |
| COc1c(Cl)ccc(Cl)c1C(=O)Nc1cc(C#N)ccc1N1CCC(Oc2ccc(F)cc2F)CC1 [Example 206, 3,6-dichloro-N-(5-cyano-2-(4-(2,4-difluorophenoxy)piperidin-1-yl)phenyl)-2-methoxybenzamide] | 5.1 |
| COc1ccc(C(F)(F)F)cc1C(=O)Nc1cc(C#N)ccc1N1CCC(Oc2ccc(F)cc2F)CC1 [Example 208, N-(5-cyano-2-(4-(2,4-difluorophenoxy)piperidin-1-yl)phenyl)-2-methoxy-5-(trifluoromethyl)benzamide] | 6.9 |
